The text below walks through data of US20130165489A1, “Small Molecule Modulators of HIV-1 Capsid Stability and Methods Thereof” (The Trustees of the University of Pennsylvania, priority 2010, published 2013).

Data set [1] has as its system HIV-1 89BZ167 (subtype B clinical isolate). Briefly: Anti-HIV efficacy in human PBMCs, isolate 89BZ167. It is filed as cell-based. The protocol:
(§1) HIV human peripheral blood mononuclear cell (PBMC) assays were performed as described previously (Lanier et al., 2010, Antimicrob. Agents Chemother. 54:2901-09; Ptak et al., 2008, Antimicrob. Agents Chemother. 52:1302-17). Briefly, fresh PBMCs, seronegative for HIV and hepatitis B virus (HBV), were isolated from blood samples of the screened donors (Biological Specialty Corporation, Colmar, Pa.) by using lymphocyte separation medium (LSM; density, 1.078±0.002 g/ml; Cellgro; Mediatech, Inc.) by following the manufacturer's instructions. Cells were stimulated by incubation in 4 μg/mL phytohemagglutinin (PHA; Sigma) for 48 to 72 h. Mitogenic stimulation was maintained by the addition of 20 U/mL recombinant human interleukin-2 (rhIL-2; R&D Systems, Inc.) to the culture medium. PHA-stimulated PBMCs from at least two donors were pooled, diluted in fresh medium, and added to 96-well plates at 5×10^4 cells/well. Cells were infected (final multiplicity of infection [MOI] of ≅0.1) in the presence of 9 different concentrations of test compounds (triplicate wells/concentration) and incubated for 7 days. […] Following removal of supernatant samples, compound cytotoxicity was measured by the addition of 3-(4,5-dimethylthiazol-2-yl)-5-(3-carboxymethoxyphenyl)-2-(4-sulfophenyl)-2H-tetrazolium (MTS; CellTiter 96 reagent; Promega) by following the manufacturer's instructions. […]

For data set [2], the system named is HIV-1 93BR020 (subtype F clinical isolate). In words: Anti-HIV efficacy in human PBMCs, isolate 93BR020. The data set is classed as cell-based. As for the experimental part:
as §1

Data set [3] has as its system HIV-1 BCF02 (group O clinical isolate). In words: Anti-HIV efficacy in human PBMCs, isolate BCF02. It is filed as cell-based. The protocol: as §1
In another data set the test system is mutant HIV-1 CA proteins. Briefly: Binding site analysis via SPR, mutant CA proteins. The note with it: alanine mutants of residues 137 and R173, 27.5 μM. The protocol: Wild-type and mutant HIV-1 CA proteins were attached to the surface by standard amine chemistry as described above. Compound CMPD-E was injected over these surfaces at a concentration of 27.5 μM at a flow rate of 50 μL min^−1, for a 2-min association phase, followed by a 5-min dissociation phase, and the response at equilibrium recorded. For comparison, and to take into account minor differences in the ligand density of the mutant surfaces, responses were normalized to the theoretical Rmax, assuming a 2:1 interaction.
Data analysis was performed using BIAEvaluation 4.0 software. The responses of a buffer injection and responses from the reference flow cell were subtracted to account for nonspecific binding. In order to obtain the equilibrium dissociation constants (KD), experimental data were fitted globally to the heterogeneous ligand model. The average parameters generated from a minimum of 4 data sets were used to define the equilibrium dissociation constants (KD1 and KD2). In the mutant CA protein studies, the average maximum response was generated from a minimum of 6 data sets and was used to define the average maximum response for compound CMPD-E binding to wild-type and mutant HIV-1 CA proteins.
In general terms: Surface plasmon resonance follows binding to a sensor surface in real time, without labels.

A further data set addresses HIV-1NL4-3 CA (Human immunodeficiency virus type 1 group M subtype B, UniProt P12493). In words: Isothermal titration calorimetry. The data set is classed as binding. The protocol:
Isothermal titration calorimetric experiments were performed at 10, 15, and 25° C. using a high-precision ITC200 titration calorimetric system from MicroCal LLC (Northampton, Mass.). All titrations were performed by adding CMPD-E in steps of […]. All solutions contained within the calorimetric cell and injector syringe were prepared in the same buffer, 25 mM Tris-HCl, pH 7.5 with 150 mM NaCl and 3% DMSO. The concentrations of CA and CMPD-E were 35 and 600 μM, respectively. The heat evolved upon injection of CMPD-E was obtained from the integral of the calorimetric signal. The heat associated with the binding reaction was obtained by subtracting the heat of dilution from the heat of reaction. The individual heats were plotted against the molar ratio, and the values for the number of binding sites (n), the enthalpy change (ΔH) and dissociation constant (KD=1/KA) were obtained by nonlinear regression of the data.
On the technique in general: Isothermal titration calorimetry measures the heat released or taken up as one component is titrated into another.

A further data set concerns DENV (serotypes 1-4). Briefly: CPE assay, Dengue serotypes 1-4. The data set is classed as cell-based, Dengue virus.
Another data set concerns YFV. In words: microbe, parasite or virus in culture. The data set is classed as cell-based, yellow fever virus.
The subject of another data set is JEV. In words: CPE assay, JEV. The data set is classed as cell-based, Japanese encephalitis virus.
Another data set concerns Chikungunya. Briefly: CPE assay, Chikungunya. It is filed as cell-based.
The next data set in a line: in vitro. The conditions noted are these: African green monkey.
Data set [4] concerns recombinant luciferase-expressing HIV-1 bearing the envelope glycoprotein of the HIV-1YU-2 strain. In words: Single-round infection assay, HIV-1 with YU-2 envelope on Cf2Th-CCR5 cells.
Setting [5] is: Human immunodeficiency virus 1, PBMC.

Structures are written as SMILES. Entries after “also recorded” stand apart in the source; their conditions may differ. Bounds are passed on as bounds.

`O=C(O)c1ccc(-c2nc(-c3ccccc3)c(-c3ccccc3)[nH]2)cc1` [CMPD-E, 4-(4,5-diphenyl-1H-imidazol-2-yl)benzoic acid]: the IC50 – broadly, the concentration that inhibits the measured activity by half – in data set [1] (setting [5]) is 92.9 µM; in data set [2] (setting [5]), 65.6 µM; in [3] (setting [5]), 71.3 µM; in the data set with DENV (serotypes 1-4) (Dengue virus) it was greater than 100 µM; in the data set with YFV (Yellow fever virus) it was greater than 100 µM; with JEV (Japanese encephalitis virus), greater than 100 µM. Moreover, the IC50 in the data set on Chikungunya (Chikungunya virus) is greater than 100 µM; in data set [4] (Human immunodeficiency virus 1, Cf2Th-CCR5, read-out: IC50 against HIV-1 (single-round infection)), 22.5 ± 1.1 µM. Besides, the “Antiviral index (TC50/IC50)” value is reported as greater than 1.08 in data set [1] (PBMC), greater than 1.53 in [2] (PBMC) and greater than 1.4 in data set [3] (PBMC). Moreover, the “reduction of binding to mutant CA compared to wild-type CA” value with mutant HIV-1 CA proteins is greater than 2 fold. Moreover, at HIV-1NL4-3 CA, the Kd (in general, the constant that tells how readily two partners part at equilibrium) worked out at 85 µM. In addition, the “change in Gibbs energy” value at HIV-1NL4-3 CA (ITC, 25° C.) was -6.6 kcal/mol. In addition, the “change in enthalpy (ΔH)” value at HIV-1NL4-3 CA (ITC, 25° C.) was -7.3 kcal/mol. In addition, on HIV-1NL4-3 CA (ITC, 25° C.), the “change in entropy (ΔS)” value is recorded as −5.0 cal/(K×mol). The heat capacity change at HIV-1NL4-3 CA (from temperature dependence of the enthalpy) is on record as −220 cal/(K×mol). In addition, the “anti-DENV activity” value in the data set with DENV (serotypes 1-4) was “no inhibitory effects; also recorded: retains none of the anti-DENV activity”. Moreover, the “effect on yellow fever virus replication” value in the data set with YFV (up to 100 μM) is “no inhibitory effects”. The “effect on Japanese encephalitis virus replication” value in the data set on JEV is “no inhibitory effects”. Moreover, the “effect on Chikungunya virus replication” value in the data set on Chikungunya is reported as “no inhibitory effects”. The compound further yielded a CC50 in “in vitro” greater than 100 µM. The “activity in the single-round infection assay” value in data set [4] (Cf2Th-CCR5 cells, YU-2 envelope) was “retained the activity of the parental molecule; also recorded: retained all of the inhibitory capability of the parental compound”.
